pIC50: −log10 of the molar value.

As a reminder, the pIC50 is −log10 of the IC50, conventionally taken in molar units. The low end stands for a high IC50, the high end for a low IC50.

The target of the experiment is human TPH1 (Homo sapiens (Human), UniProt P17752). Kind of experiment: Biochemical in vitro assay using fluorescence readout (TPH1 inhibition). The note with it: human TPH1, fluorescence readout.
human TPH1, sequence (P17752 whole entry): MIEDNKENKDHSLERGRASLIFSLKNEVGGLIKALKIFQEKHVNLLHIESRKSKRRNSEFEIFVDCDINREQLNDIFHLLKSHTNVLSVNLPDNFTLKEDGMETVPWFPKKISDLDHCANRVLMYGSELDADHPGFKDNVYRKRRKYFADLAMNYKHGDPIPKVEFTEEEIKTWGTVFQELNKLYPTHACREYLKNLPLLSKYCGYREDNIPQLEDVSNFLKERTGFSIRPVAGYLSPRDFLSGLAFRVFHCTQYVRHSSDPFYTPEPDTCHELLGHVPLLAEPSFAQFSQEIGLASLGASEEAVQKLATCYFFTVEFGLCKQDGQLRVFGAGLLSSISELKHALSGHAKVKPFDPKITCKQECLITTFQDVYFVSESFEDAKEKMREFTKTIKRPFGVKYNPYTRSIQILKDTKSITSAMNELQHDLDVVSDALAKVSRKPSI
In the case of `CCc1nc(C(=O)NC2CC2)ccc1OCC(=O)N1CCc2nc3sc(CF)nn3c2C1c1sc(C)nc1C` (stereo not drawn) [Example 7.4.1, N-cyclopropyl-5-(2-(5-(2,4-dimethylthiazol-5-yl)-2-(fluoromethyl)-7,8-dihydro-[1,3,4]thiadiazolo[2′,3′:2,3]imidazo[4,5-c]pyridin-6(5H)-yl)-2-oxoethoxy)-6-ethylpicolinamide], the pIC50 was 8.15.

In the case of `Cc1nn2c3c(nc2s1)CCN(C(=O)COc1ccc(N2CCCC2)nc1C)C3c1ccc(C2CC2)cc1F` (stereo not drawn) [Example 1.6.16, 1-(5-(4-cyclopropyl-2-fluorophenyl)-2-methyl-7,8-dihydro-[1,3,4]thiadiazolo[2′,3′:2,3]imidazo[4,5-c]pyridin-6(5H)-yl)-2-((2-methyl-6-(pyrrolidin-1-yl)pyridin-3-yl)oxy)ethanone], the negative logarithm of the IC50 (pIC50) was 7.89.

Take `Cc1nn2c3c(nc2s1)CCN(C(=O)COc1ccc(N(C)C)nc1Cl)C3c1ccc(C2CC2)cc1F` (stereo not drawn) [Example 1.6.22, 2-((2-chloro-6-(dimethylamino)pyridin-3-yl)oxy)-1-(5-(4-cyclopropyl-2-fluorophenyl)-2-methyl-7,8-dihydro-[1,3,4]thiadiazolo[2′,3′:2,3]imidazo[4,5-c]pyridin-6(5H)-yl)ethanone]: the pIC50 is 8.52.

`O=C(COc1ccc(Cl)cc1Cl)N1CCc2nc3sccn3c2C1c1cc2cccnc2s1` (stereo not drawn) [Example 6.14.1, 2-(2,4-dichlorophenoxy)-1-(5-(thieno[2,3-b]pyridin-2-yl)-7,8-dihydrothiazolo[2′,3′:2,3]imidazo[4,5-c]pyridin-6(5H)-yl)ethanone] had a negative-log IC50 (pIC50) of 7.60.

Compound `Cc1nn2c3c(nc2s1)CCN(C(=O)COc1ccc(N2CC(F)(F)C2)nc1Cl)C3c1sc(C(=O)N(C)C)cc1F` (stereo not drawn) [Example 1.24.6, 5-(6-(2-((2-chloro-6-(3,3-difluoroazetidin-1-yl)pyridin-3-yl)oxy)acetyl)-2-methyl-5,6,7,8-tetrahydro-[1,3,4]thiadiazolo [2′,3′:2,3]imidazo[4,5-c]pyridin-5-yl)-4-fluoro-N,N-dimethylthiophene-2-carboxamide] had a negative logarithm of the IC50 (pIC50) of 8.30.

With `Cc1ccc(C2c3c(nc4sc(CF)nn34)CCN2C(=O)COc2ccc(NS(C)(=O)=O)nc2Cl)c(F)c1` (stereo not drawn) [Example 7.3.1, N-(6-chloro-5-(2-(5-(2-fluoro-4-methylphenyl)-2-(fluoromethyl)-7,8-dihydro-[1,3,4]thiadiazolo[2′,3′:2,3]imidazo[4,5-c]pyridin-6(5H)-yl)-2-oxoethoxy)pyridin-2-yl)methanesulfonamide], the negative-log IC50 (pIC50) is 8.10.

Compound `CCn1nc(C(=O)OC)cc1OCC(=O)N1CCc2nc3sc(C)nn3c2C1c1ccc(Cl)cc1F` (stereo not drawn) [Example 1.4.31, Methyl 5-(2-(5-(4-chloro-2-fluorophenyl)-2-methyl-7,8-dihydro-[1,3,4]thiadiazolo[2′,3′:2,3]imidazo[4,5-c]pyridin-6(5H)-yl)-2-oxoethoxy)-1-ethyl-1H-pyrazole-3-carboxylate] showed a pIC50 of 7.40.

In turn, `Cc1nn2c3c(nc2s1)CCN(C(=O)COc1ccc(C(F)(F)F)nc1Cl)C3c1sc(C(=O)N(C)C)cc1F` (stereo not drawn) [Example 1.24.2, 5-(6-(2-((2-chloro-6-(trifluoromethyl)pyridin-3-yl)oxy)acetyl)-2-methyl-5,6,7,8-tetrahydro-[1,3,4]thiadiazolo [2′,3′:2,3]imidazo[4,5-c]pyridin-5-yl)-4-fluoro-N,N-dimethylthiophene-2-carboxamide] gave a pIC50 of 7.66. This pIC50 is 0.26 log units higher than that of the compound before.

For the compound `Cc1cc(Cl)ccc1OCC(=O)N1CCc2nc3sccn3c2C1c1c(C)noc1C` (stereo not drawn) [Example 6.5.4, 2-(4-chloro-2-methylphenoxy)-1-(5-(3,5-dimethylisoxazol-4-yl)-7,8-dihydrothiazolo[2′,3′:2,3]imidazo[4,5-c]-pyridin-6(5H)-yl)ethanone], the pIC50 is 7.57.

For `Cc1nn2c3c(nc2s1)CCN(C(=O)COc1ccc(NS(C)(=O)=O)nc1Cl)C3c1cc(F)c(C)cc1F` (stereo not drawn) [Example 1.74.2, N-(6-chloro-5-(2-(5-(2,5-difluoro-4-methylphenyl)-2-methyl-7,8-dihydro-[1,3,4]thiadiazolo[2′,3′:2,3]imidazo[4,5-c]pyridin-6(5H)-yl)-2-oxoethoxy)pyridin-2-yl)methanesulfonamide], the pIC50 is 7.74.

In the case of `Cc1nn2c3c(nc2s1)CCN(C(=O)COc1ccc(C(=O)N(C)C)nc1Cl)C3c1cncs1` (stereo not drawn) [Example 1.39.2, 6-chloro-N,N-dimethyl-5-(2-(2-methyl-5-(thiazol-5-yl)-7,8-dihydro-[1,3,4]thiadiazolo[2′,3′:2,3]imidazo[4,5-c]pyridin-6(5H)-yl)-2-oxoethoxy)picolinamide], the negative-log IC50 (pIC50) was 7.16.

The compound `Cc1nn2c3c(nc2s1)CCN(C(=O)COc1ccc(C#N)cc1Cl)C3c1ccc(Cl)cc1F` (stereo not drawn) [Example 1.4.24, 3-chloro-4-(2-(5-(4-chloro-2-fluorophenyl)-2-methyl-7,8-dihydro-[1,3,4]thiadiazolo[2′,3′:2,3]imidazo[4,5-c]pyridin-6(5H)-yl)-2-oxoethoxy)benzonitrile] gave a pIC50 of 7.96.

In the case of `Cc1nc(C)c(C2c3c(nc4sc(C)nn34)CCN2C(=O)COc2ccc(N3CCOCC3)nc2Cl)o1` (stereo not drawn) [Example 1.66.1, 2-((2-chloro-6-morpholinopyridin-3-yl)oxy)-1-(5-(2,4-dimethyloxazol-5-yl)-2-methyl-7,8-dihydro-[1,3,4]thiadiazolo [2′,3′:2,3]imidazo[4,5-c]pyridin-6(5H)-yl)ethanone], the negative logarithm of the IC50 (pIC50) is 7.89.

As to `Cc1nn2c3c(nc2s1)CCN(C(=O)COc1ccc(C#N)cc1Cl)C3c1sc(C(=O)N(C)C)cc1F` (stereo not drawn) [Example 1.24.8, 5-(6-(2-(2-chloro-4-cyanophenoxy)acetyl)-2-methyl-5,6,7,8-tetrahydro-[1,3,4]thiadiazolo[2′,3′:2,3]imidazo[4,5-c]pyridin-5-yl)-4-fluoro-N,N-dimethylthiophene-2-carboxamide], the negative logarithm of the IC50 (pIC50) is 7.85.

Regarding `CCc1nc(NS(C)(=O)=O)ncc1OCC(=O)N1CCc2nc3sc(C)nn3c2C1c1sc(C)nc1C` (stereo not drawn) [Example 1.68.9, N-(5-(2-(5-(2,4-dimethylthiazol-5-yl)-2-methyl-7,8-dihydro-[1,3,4]thiadiazolo[2′,3′:2,3]imidazo[4,5-c]pyridin-6(5H)-yl)-2-oxoethoxy)-4-ethylpyrimidin-2-yl)methanesulfonamide], the negative logarithm of the IC50 (pIC50) was 7.18.

For the compound `CS(=O)(=O)Nc1ccc(OCC(=O)N2CCc3nc4sccn4c3C2c2ccc(Cl)cc2F)c(Cl)n1` (stereo not drawn) [Example 6.4.8, N-(6-chloro-5-(2-(5-(4-chloro-2-fluorophenyl)-7,8-dihydrothiazolo[2′,3′:2,3]imidazo[4,5-c]pyridin-6(5H)-yl)-2-oxoethoxy)pyridin-2-yl)methanesulfonamide], the negative logarithm of the IC50 (pIC50) was 8.52.

In the case of `CCc1nc(Cl)ncc1OCC(=O)N1CCc2nc3sc(C)nn3c2[C@@H]1c1ncc(C)cc1F` [Example 1.31.18, (R)-2-((2-chloro-4-ethylpyrimidin-5-yl)oxy)-1-(5-(3-fluoro-5-methylpyridin-2-yl)-2-methyl-7,8-dihydro-[1,3,4]thiadiazolo[2′,3′:2,3]imidazo[4,5-c]pyridin-6(5H)-yl)ethanone], the negative logarithm of the IC50 (pIC50) was 7.31.

`CN1CCN(c2ccc(OCC(=O)N3CCc4nc5sc(C6CC6)nn5c4C3c3ccc(Cl)cc3F)c(Cl)n2)CC1` (stereo not drawn) [Example 4.1.4, 1-(5-(4-chloro-2-fluorophenyl)-2-cyclopropyl-7,8-dihydro-[1,3,4]thiadiazolo[2′,3′:2,3]imidazo[4,5-c]pyridin-6(5H)-yl)-2-((2-chloro-6-(4-methylpiperazin-1-yl)pyridin-3-yl)oxy)ethanone] gave a pIC50 of 7.92.

With `COc1ccc(C2c3c(nc4sc(C)nn34)CCN2C(=O)COc2ccc(NS(C)(=O)=O)nc2Cl)c(F)c1` (stereo not drawn) [Example 1.3.4, N-(6-chloro-5-(2-(5-(2-fluoro-4-methoxyphenyl)-2-methyl-7,8-dihydro-[1,3,4]thiadiazolo[2′,3′:2,3]imidazo[4,5-c]pyridin-6(5H)-yl)-2-oxoethoxy)pyridin-2-yl)methanesulfonamide], the pIC50 was 8.10.

As to `CNC(=O)c1cc(F)c(C2c3c(nc4sc(C)nn34)CCN2C(=O)COc2ccc(C(=O)N(C)C)nc2Cl)s1` (stereo not drawn) [Example 1.25.4, 6-chloro-5-(2-(5-(3-fluoro-5-(methylcarbamoyl)thiophen-2-yl)-2-methyl-7,8-dihydro-[1,3,4]thiadiazolo[2′,3′:2,3]imidazo[4,5-c]pyridin-6(5H)-yl)-2-oxoethoxy)-N,N-dimethylpicolinamide], the negative-log IC50 (pIC50) is 8.22.

`CCc1nc(NS(C)(=O)=O)ccc1OCC(=O)N1CCc2nc3sc(C)nn3c2C1c1cc(F)c(C)cc1F` (stereo not drawn) [Example 1.74.1, N-(5-(2-(5-(2,5-difluoro-4-methylphenyl)-2-methyl-7,8-dihydro-[1,3,4]thiadiazolo[2′,3′:2,3]imidazo[4,5-c]pyridin-6(5H)-yl)-2-oxoethoxy)-6-ethylpyridin-2-yl)methanesulfonamide] gave a pIC50 of 7.60.

Turning to `COC(=O)c1cnc(C2c3c(nc4sc(C)nn34)CCN2C(=O)COc2ccc(C(F)(F)F)cc2Cl)s1` (stereo not drawn) [Example 1.28.2, Methyl 2-(6-(2-(2-chloro-4-(trifluoromethyl)phenoxy)acetyl)-2-methyl-5,6,7,8-tetrahydro-[1,3,4]thiadiazolo [2′,3′:2,3]imidazo[4,5-c]pyridin-5-yl)thiazole-5-carboxylate], the negative-log IC50 (pIC50) was 7.40.

Compound `COC(C)(C)c1ccc(C2c3c(nc4sc(C)nn34)CCN2C(=O)COc2ccc(NS(C)(=O)=O)nc2Cl)c(F)c1` (stereo not drawn) [Example 1.81.2, N-(6-chloro-5-(2-(5-(2-fluoro-4-(2-methoxypropan-2-yl)phenyl)-2-methyl-7,8-dihydro-[1,3,4]thiadiazolo[2′,3′:2,3]imidazo[4,5-c]pyridin-6(5H)-yl)-2-oxoethoxy)pyridin-2-yl)methanesulfonamide] showed a negative logarithm of the IC50 (pIC50) of 6.88.

For the compound `CCc1nc(C)ccc1OCC(=O)N1CCc2nc3sccn3c2C1c1ccc(C(F)(F)F)cc1F` (stereo not drawn) [Example 6.11.1, 2-((2-ethyl-6-methylpyridin-3-yl)oxy)-1-(5-(2-fluoro-4-(trifluoromethyl)phenyl)-7,8-dihydrothiazolo-[2′,3′:2,3]imidazo[4,5-c]pyridin-6(5H)-yl)ethanone], the pIC50 is 8.00.

(Values after patent US9765092B2, “Tricyclic piperidine compounds” (ACTELION PHARMACEUTICALS LTD, priority 2013, dated 2017).)
